Assay results from PMC11460632, “Chemical modification of hyaluronan oligosaccharides differentially modulates hyaluronan–hyaladherin interactions” (The Journal of Biological Chemistry, 2024).
Like-named read-outs stand apart in the source and are kept apart here.

What was measured:
[1] = target: T1, hisCD44_HABD^20–169 (Homo sapiens, UniProt P16070); assay: MST of HA oligosaccharides binding to hisCD44_HABD^20–169
T1 construct: A novel construct consisting of residues 20 to 169 of human CD44 and an N-terminal six-histidine tag; made in house
Method: For hisCD44_HABD^20–169, interactions with HA oligosaccharides were assessed using MST. Protein (200 nM) was labeled with 5 μM red-Tris-NTA-650 dye following the manufacturer’s instructions in 10 mM Hepes, pH 7.4, 150 mM NaCl, 0.05% (v/v) Tween-20 (interaction buffer). Stock solutions of HA oligosaccharides (5 mM in interaction buffer) were serially diluted (1:1 in interaction buffer) 16 times before each concentration was mixed with an equal volume of labeled protein (10 nM final concentration hisCD44_HABD^20–169). Samples were loaded into standard glass capillaries (NanoTemper) and thermophoresis measured at 25 °C (with active temperature control) using a Monolith NT.115pico instrument (NanoTemper) running NT Control software (version 1.0.1). All experiments were performed in triplicate and data analyzed with the “KD fit model” in the NT Analysis software (version 2.0.2).

[2] = target: T2, recombinant human TSG-6 (Homo sapiens, UniProt P19827+P98066); assay: In vitro HC-transfer assay (IαI + rhTSG-6, Western blot anti-HC1); assay type: biochemical; conditions: 15 μM HA, 1.8 μM IαI, rhTSG-6, 2 h at 37 °C
T2 construct: TSG-6–mediated HC-transfer assays (using full-length TSG6); purchased R&D Systems
Method in brief: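 HC transfer from human IαI (1.8 μM) onto unmodified or chemically modified HA oligosaccharides (15 μM), catalysed by recombinant human TSG-6 (2.8 μM), in 20 mM Hepes pH 7.5, 150 mM NaCl, 5 mM MgCl2. Products resolved by SDS-PAGE and detected by Western blot with anti-HC1 antiserum (near-IR fluorescence).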

[3] = test system: Link_TSG6; parameters: method as in PMID 24403066; conditions: cited from earlier work
[4] = target: T3, Link_TSG6 (Homo sapiens, UniProt P98066); assay: ITC of HA oligosaccharides binding to Link_TSG6
T3 construct: made in house
Method in brief: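 ITC at 25 °C in 5 mM MES pH 6.0, with 0.29 mM oligosaccharide titrated (18 injections) into 0.029 mM Link_TSG6. Heats of the last three injections subtracted for dilution. Data fit to a one-site model, four independent runs per oligosaccharide.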

[5] = Table 1, ITC, 25 °C, 5 mM MES pH 6.0, mean ± SEM

T1 sequence (P16070 20-169): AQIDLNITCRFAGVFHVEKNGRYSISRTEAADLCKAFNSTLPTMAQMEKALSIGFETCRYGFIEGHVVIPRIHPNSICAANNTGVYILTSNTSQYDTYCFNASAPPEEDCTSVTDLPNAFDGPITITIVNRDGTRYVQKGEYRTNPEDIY
T3 sequence (P98066 36-129 limits assumed): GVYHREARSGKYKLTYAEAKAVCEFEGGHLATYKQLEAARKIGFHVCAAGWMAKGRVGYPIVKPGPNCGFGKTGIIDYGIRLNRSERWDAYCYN
T2 sequence (P98066 18-277): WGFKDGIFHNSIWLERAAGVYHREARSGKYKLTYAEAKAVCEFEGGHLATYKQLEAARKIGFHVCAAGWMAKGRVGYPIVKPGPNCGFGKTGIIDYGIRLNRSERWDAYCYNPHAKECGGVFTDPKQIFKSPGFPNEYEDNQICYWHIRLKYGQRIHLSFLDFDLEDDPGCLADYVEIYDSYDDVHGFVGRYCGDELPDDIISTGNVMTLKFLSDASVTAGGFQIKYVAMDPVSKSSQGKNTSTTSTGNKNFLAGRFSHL
T2 sequence (P19827 35-672 limits assumed): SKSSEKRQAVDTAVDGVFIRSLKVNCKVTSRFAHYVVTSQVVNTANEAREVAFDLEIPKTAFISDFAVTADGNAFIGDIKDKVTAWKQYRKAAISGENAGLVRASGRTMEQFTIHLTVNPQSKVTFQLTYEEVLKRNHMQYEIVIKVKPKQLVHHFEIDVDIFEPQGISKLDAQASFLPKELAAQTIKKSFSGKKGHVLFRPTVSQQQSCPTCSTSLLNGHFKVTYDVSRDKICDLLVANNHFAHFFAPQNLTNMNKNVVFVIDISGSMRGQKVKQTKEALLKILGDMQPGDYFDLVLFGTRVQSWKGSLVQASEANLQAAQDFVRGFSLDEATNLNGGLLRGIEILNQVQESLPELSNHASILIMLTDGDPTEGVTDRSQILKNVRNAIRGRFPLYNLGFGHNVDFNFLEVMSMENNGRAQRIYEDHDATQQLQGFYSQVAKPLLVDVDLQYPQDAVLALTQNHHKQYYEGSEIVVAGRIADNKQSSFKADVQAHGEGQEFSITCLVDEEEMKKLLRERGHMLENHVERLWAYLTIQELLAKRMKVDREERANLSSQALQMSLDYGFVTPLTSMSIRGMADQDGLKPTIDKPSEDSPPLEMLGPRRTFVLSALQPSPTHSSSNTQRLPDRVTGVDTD

CC(=O)N[C@H]1[C@H](O[C@H]2[C@H](O)[C@@H](O)[C@H](O[C@H]3[C@H](O)[C@@H](CO)O[C@@H](O[C@H]4[C@H](O)[C@@H](O)[C@H](O[C@H]5[C@H](O)[C@@H](CO)O[C@@H](O[C@H]6[C@H](O)[C@@H](O)[C@H](O[C@H]7[C@H](O)[C@@H](CO)OC(O)[C@@H]7NC(C)=O)O[C@@H]6C(=O)O)[C@@H]5NC(C)=O)O[C@@H]4C(=O)O)[C@@H]3NC(C)=O)O[C@@H]2C(=O)O)O[C@H](CO)[C@@H](O)[C@@H]1O[C@@H]1O[C@H](C(=O)O)[C@@H](O)[C@H](O)[C@H]1O (stereo partly shown) [HA8^AN, reference compound]
Kd ([1]; MST, read-out: KD for hisCD44_HABD^20–169): ~50 µM | % HAn^AN: percentage of binding affinity (KB) compared to the unmodified oligosaccharide of the same length ([1]; Table 2, MST): 100% | Kd ([1]; Table 2, MST, 10 mM Hepes pH 7.5, 150 mM NaCl, 0.05% Tween-20, 25 °C, mean (±SD), three titrations, read-out: KD): 51 µM | % HAx^AN: percentage of binding affinity (KB) compared to the unmodified oligosaccharide of the same length ([1]; Table 5, MST): 100% | Kd ([1]; Table 5, MST, 10 mM Hepes pH 7.5, 150 mM NaCl, 0.05% Tween-20, 25 °C, mean ± SD, three titrations, read-out: KD): 51 ± 5 µM | % Binding affinity hisCD44_HABD^20–169 ([1]; Table 6, relative to unmodified oligosaccharide of the same length, by MST): 100% | Substrate for HC transfer ([2]; Table 6): Yes | Activity as substrate for HC transfer (text) ([2]; Western blot anti-HC1): acted as substrates | Fold greater affinity for Link_TSG6 (compared to HA8^AN) [3]: 1.9 fold | N ([4]; Table 1, ITC, 25 °C, 5 mM MES pH 6.0, 0.029 mM Link_TSG6, 0.29 mM oligosaccharide, mean ± SEM, four titrations): 0.98 ± 0.01 | ΔG [4, 5]: -8.89 ± 0.03 kcal/mol | ΔH [4, 5]: -7.26 ± 0.20 kcal/mol | −TΔS [4, 5]: -1.63 ± 0.24 kcal/mol | Kd ([4]; Table 1, ITC, 25 °C, 5 mM MES pH 6.0, mean ± SEM, four titrations, read-out: KD): 0.31 ± 0.02 µM | −TΔS ([4]; Table 4, ITC, 25 °C, 5 mM MES pH 6.0, mean ± SEM): −1.63 ± 0.24 kcal•mol^a1 | % Binding affinity Link_TSG6 ([4]; Table 6, relative to unmodified oligosaccharide of the same length, by ITC): 100%
